# Measured values from patent US12466784B2, “Analogs of pterostilbene amino acid bearing carbonates for treating a non-alcoholic fatty liver disease and nonalcoholic steatohepatitis” (APICAL MOLECULAR BIOTECH CO., LTD., priority 2020, dated 2025).
# Where “and” joins values, the source holds several entries; their conditions need not be identical. Identical values can stand only once.
# Legend:
# [1] = system: hepatic steatosis induced by MCD diet; test: Histological examination (H&E stain) of liver of MCD diet mice; assay type: in vivo, Male C57BL/6 mice; conditions: for effect on MCD diet-induced steatohepatitis (H&E staining), in words / Steatosis / Ballooning / Fibrosis / Inflammation / Scores: MCD diet mice; for effect on MCD diet-induced steatohepatitis (H&E staining), in words / Avg / Ballooning / Fibrosis / Inflammation / Sum / Scores: 100 mg/kg oral; for Avg: average of Scores of the group; for Avg / Ballooning / Fibrosis / Inflammation / Sum / Scores: PG/TPSG (1:1); for Steatosis / Ballooning / Fibrosis / Inflammation: score per animal; for Steatosis: 100 mg/kg oral once daily, 5 times a week, in PG/TPSG (1:1); for Sum: sum of Scores of the 4 animals of the group; for Scores: total score per animal
# Method: (§1) Animals and experimental protocol: Male C57BL/6 mice, 4 weeks of age, were purchased from Laboratory Animal Center (Taiwan, China) were maintained under the procedures and guidelines provided by the Institutional Animal Care and Use Committee of the Health Research Institutes (Taiwan, China). They were maintained with free access to pellet food and water in stainless-steel cages at a temperature of 21±2° C. with a 12 h light/dark cycle.
# (§2) Mice were randomly divided into five groups and treated as follows: (1) MCD diet+PG/TPSG (2) MCD diet+100 mg/kg all compounds. After 28 days, animals were sacrificed for the collection of blood for determination of plasma ALT and AST concentrations, and liver samples for H&E stain.
# (§3) After 28 days, animals were sacrificed for the collection of blood for determination of plasma ALT and AST concentrations, and liver samples for H&E stain.
# MCD diet NASH mice = test: Serum AST and ALT of compounds treated-NASH mice (MCD diet); assay type: in vivo, Male C57BL/6 mice; conditions: MCD diet mice; for Serum ALT (U/L) / Serum AST (U/L): 100 mg/kg oral, PG/TPSG (1:1); for effect on serum concentrations of AST and ALT, in words: 100 mg/kg oral (Table 2)
# Method: as §1, §2, §3
# [2] = In vitro stability in pH 1.2 solution (USP Gastric fluid without enzymes); conditions: 37° C.
# Method: Sample collection: At 0, 0.17, 0.5, 1, 2, 4 and 6 h, 100 mL of aliquots were taken from the incubation mixture and placed into centrifuge tubes containing 100 μL of ice-cold acetonitrile and 1 μm internal standard where the reaction was terminated.
SMILES,"effect on MCD diet-induced steatohepatitis (H&E staining), in words [1]",Avg [1],"Steatosis ([1]; hydrochloride, 100 mg/kg)",Ballooning [1],Fibrosis [1],"Inflammation ([1]; hydrochloride, 100 mg/kg)",Sum [1],"Scores ([1]; hydrochloride, 100 mg/kg)",Serum ALT (U/L) (MCD diet NASH mice),Serum AST (U/L) (MCD diet NASH mice),compound remaining in pH = 1.2 solution (%) ([2]; Time 0 h),compound remaining in pH = 1.2 solution (%) ([2]; Time 0.167 h),compound remaining in pH = 1.2 solution (%) ([2]; Time 0.5 h),compound remaining in pH = 1.2 solution (%) ([2]; Time 1 h),compound remaining in pH = 1.2 solution (%) ([2]; Time 2 h),compound remaining in pH = 1.2 solution (%) ([2]; Time 4 h),"effect on serum concentrations of AST and ALT, in words (MCD diet NASH mice)",Steatosis [1],further results
"CCOc1cc(/C=C/c2ccc(OC(=O)OCCNC(=O)CN)cc2)cc(OCC)c1.Cl [Compound 6b, (E)-2-(2-aminoacetamido)ethyl (4-(3,5-diethoxystyryl)phenyl) carbonate hydrochloride]",prevented MCD diet-induced steatohepatitis,7.00,3 (2×) and 2 (2×),2,0,3 (2×) and 2 (2×),28,8 (2×) and 6 (2×),454.38,408.75,100.0,130.5,103.9,111.7,97.9,99.2,–,–,–
"COc1cc(/C=C/c2ccc(OC(=O)OCCNC(=O)C(N)Cc3ncc[nH]3)cc2)cc(OC)c1.Cl.Cl (centres unmarked) [Compound 5m, (E)-2-(2-amino-3-(1H-imidazol-2-yl)propanamido)ethyl (4-(3,5-dimethoxy styryl)phenyl) carbonate dihydrochloride]",prevented MCD diet-induced steatohepatitis,7.25,–,2,0,–,29,–,190.88,381.75,100.0,88.6,109.8,113.5,102.6,85.6,significantly inhibited the serum concentrations of AST and ALT,–,"Steatosis ([1]; dihydrochloride, 100 mg/kg): 2 (2×) and 3 (2×); Inflammation ([1]; dihydrochloride, 100 mg/kg): 3 (3×) and 2; Scores ([1]; dihydrochloride, 100 mg/kg): 7 and 8 (2×) and 6"
"Cl.[2H]C([2H])([2H])Oc1cc(/C=C/c2ccc(OC(=O)OCCNC(=O)CN)cc2)cc(OC([2H])([2H])[2H])c1 [Compound 6a, (E)-2-(2-aminoacetamido)ethyl (4-(3,5-bis(methoxy-d3)styryl-d6)phenyl) carbonate hydrochloride]",prevented MCD diet-induced steatohepatitis,7.00,3 (2×) and 2 (2×),2,0,3 (2×) and 2 (2×),28,8 and 7 (2×) and 6,402.63,555.25,100.0,106.4,101.2,119.4,101.5,104.6,–,–,–
"COc1cc(/C=C/c2ccc(OC(=O)OCCNC(=O)CN)cc2)cc(OC)c1.O=C(O)c1cccnc1 [Compound 5v, (E)-2-(2-aminoacetamido)ethyl (4-(3,5-dimethoxystyryl)phenyl) carbonate nicotinate]",–,8.00,–,2,0,–,32,–,430.13,610.25,100.0,100.6,106.8,101.0,103.0,106.9,–,3,Inflammation [1]: 3; Scores [1]: 8; compound remaining in pH = 1.2 solution (%) ([2]; Time 6 h): 84.8%
"COc1cc(/C=C/c2ccc(OC(=O)OCCNC(=O)CN)cc2)cc(OC)c1.Cl [Compound 5a, (E)-2-(2-aminoacetamido)ethyl (4-(3,5-dimethoxystyryl)phenyl) carbonate hydrochloride]",prevented MCD diet-induced steatohepatitis,7.75,–,2,0,3 (3×) and 2,31,8 (3×) and 7,251.75,283.00,100.0,104.6,104.0,110.2,101.7,103.5,significantly inhibited the serum concentrations of AST and ALT,3,–
"COc1cc(/C=C/c2ccc(OC(=O)OCCNC(=O)C(N)C(C)C)cc2)cc(OC)c1.O=C(O)c1cccnc1 (centres unmarked) [Compound 5w, (E)-2-(2-amino-3-methylbutanamido)ethyl (4-(3,5-dimethoxystyryl)phenyl) carbonate nicotinate]",prevented MCD diet-induced steatohepatitis,7.50,–,2,0,–,30,–,214.50,236.75,100.0,128.3,113.4,123.9,128.5,122.4,–,–,Steatosis ([1]; 100 mg/kg): 3 (3×) and 2; Inflammation ([1]; 100 mg/kg): 2 and 3 (3×); Scores ([1]; 100 mg/kg): 7 (2×) and 8 (2×)
